From PubChem BioAssay AID330 (DTP/NCI, 2004)
Where “and” joins values, the source holds several entries; their conditions need not be identical. Identical values can stand only once. Toxic doses and inconclusive results are not listed. How the source made its calls: active means survival T/C of 150% or more; inactive means T/C below 125% in these data.

Test system: P388 leukemia ip, CD2F1 mice, survival T/C
Assay: NCI In Vivo Anticancer Drug Screen. Data for tumor model P388 Leukemia (intraperitoneal) in CD2F1 (CDF1) mice
Conditions: endpoint: median survival time, higher = longer survival
Outline: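 Mice carrying the transplanted tumor received test compound or vehicle. Survival was recorded in each group, and the value is the treated-group measurement divided by that of the vehicle-treated control group.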

[1] = dose: 12.5 mg/kg/injection, schedule: Q01DX009 (ip), vehicle: Klucel (hydroxypropylcellulose) (HPC)
[2] = dose: 25.0 mg/kg/injection, schedule: Q01DX009 (ip), vehicle: Klucel (hydroxypropylcellulose) (HPC)
[3] = dose: 50.0 mg/kg/injection, schedule: Q01DX009 (ip), vehicle: Klucel (hydroxypropylcellulose) (HPC)
[4] = dose: 100.0 mg/kg/injection, schedule: Q01DX009 (ip), vehicle: Klucel (hydroxypropylcellulose) (HPC)
[5] = dose: 50.0 mg/kg/injection, schedule: Q01DX009 (ip), vehicle: saline with Tween-80
[6] = dose: 100.0 mg/kg/injection, schedule: Q01DX009 (ip), vehicle: saline with Tween-80
[7] = dose: 200.0 mg/kg/injection, schedule: Q01DX009 (ip), vehicle: saline with Tween-80
[8] = dose: 50.0 mg/kg/injection, schedule: Q01DX005 (ip), vehicle: saline with Tween-80
[9] = dose: 100.0 mg/kg/injection, schedule: Q01DX005 (ip), vehicle: saline with Tween-80
[10] = dose: 200.0 mg/kg/injection, schedule: Q01DX005 (ip), vehicle: saline with Tween-80
[11] = dose: 12.5 mg/kg/injection, schedule: Q01DX009 (ip), vehicle: saline with Tween-80
[12] = dose: 25.0 mg/kg/injection, schedule: Q01DX009 (ip), vehicle: saline with Tween-80
[13] = dose: 25.0 mg/kg/injection, schedule: Q01DX009 (ip), vehicle: saline
[14] = dose: 50.0 mg/kg/injection, schedule: Q01DX009 (ip), vehicle: saline
[15] = dose: 100.0 mg/kg/injection, schedule: Q01DX009 (ip), vehicle: saline
[16] = dose: 60.0 mg/kg/injection, schedule: Q01DX005 (ip), vehicle: saline with Tween-80
[17] = dose: 120.0 mg/kg/injection, schedule: Q01DX005 (ip), vehicle: saline with Tween-80
[18] = dose: 240.0 mg/kg/injection, schedule: Q01DX005 (ip), vehicle: saline with Tween-80

Measured: T/C

C=C1CC2(C)CCC(OC(=O)C3(C)OC3C)C(C)(OC(C)=O)C2CC1=C(C)C (centres undefined)
inactive: dose: 150.0 mg/kg/injection, schedule: Q01DX001 (ip), vehicle: Klucel (hydroxypropylcellulose) (HPC) 99 % of control | dose: 300.0 mg/kg/injection, schedule: Q01DX001 (ip), vehicle: Klucel (hydroxypropylcellulose) (HPC) 98 % of control

O=C(Nc1ccccc1)P(=O)(O)c1ccccc1
inactive: [1] 93 % of control | [2] 100 % of control | [3] 97 % of control | [4] 93 % of control

CC(C)c1cc(C(F)(F)F)nc(NNc2nc(C(C)C)cc(C(F)(F)F)n2)n1
inactive: [5] 104 % of control | [6] 104 % of control | [7] 92 % of control

C(=C1SCCCS1)c1cc2c(cc1OCc1ccccc1)OCO2
inactive: dose: 100.0 mg/kg/injection, schedule: Q01DX001 (ip), vehicle: Klucel (hydroxypropylcellulose) (HPC) 100 % of control | dose: 200.0 mg/kg/injection, schedule: Q01DX001 (ip), vehicle: Klucel (hydroxypropylcellulose) (HPC) 105 % of control | dose: 400.0 mg/kg/injection, schedule: Q01DX001 (ip), vehicle: Klucel (hydroxypropylcellulose) (HPC) 102 % of control

Nc1nc2[nH]c(=O)[nH]c2c(=O)[nH]1
inactive: [8] 94 % of control | [9] 93 % of control | [10] 91 % of control

CCN(CC)CCOc1ccc2c(c1)C(=O)c1cc(OCCN(CC)CC)ccc1-2
inactive: dose: 3.13 mg/kg/injection, schedule: Q01DX009 (ip), vehicle: saline with Tween-80 109 % of control | dose: 6.25 mg/kg/injection, schedule: Q01DX009 (ip), vehicle: saline with Tween-80 109 % of control | [11] 109 % of control | [12] 100 % of control and 113 % of control | [13] 87 % of control | [5] 90 % of control | [14] 100 % of control | [15] 100 % of control

N#C/C(=C1C=C/C(=N/O)C=C/1Cl)c1ccccc1
inactive: [5] 95 % of control | [6] 93 % of control | [7] 94 % of control | dose: 400.0 mg/kg/injection, schedule: Q01DX009 (ip), vehicle: saline with Tween-80 94 % of control

CCCCCCCCCCCCN(C)C
inactive: [11] 100 % of control | [12] 100 % of control | [5] 100 % of control

Cc1ncc2c(n1)CCC1=C2OS(=O)(=O)CC1N(C)C (centres undefined)
inactive: [8] 115 % of control | [9] 97 % of control

Cc1ccc(S(=O)(=O)Nc2ccccc2N(CCN(CCN(c2ccccc2NS(=O)(=O)c2ccc(C)cc2)S(=O)(=O)c2ccc(C)cc2)S(=O)(=O)c2ccc(C)cc2)S(=O)(=O)c2ccc(C)cc2)cc1
inactive: [5] 90 % of control | [6] 100 % of control | [7] 90 % of control

CCCCCCCCC(=O)C(=O)c1ccc(O)c(C)c1O
inactive: [3] 112 % of control | [4] 109 % of control | dose: 200.0 mg/kg/injection, schedule: Q01DX009 (ip), vehicle: Klucel (hydroxypropylcellulose) (HPC) 110 % of control

CC(=O)Oc1ccccc1C(=O)OC1CC2CCC1(C)C2(C)C (centres undefined)
inactive: [8] 92 % of control | [9] 97 % of control | [10] 98 % of control

NC(=O)c1ncn(C2OC(CO)C(O)C2O)n1 (centres undefined)
inactive: dose: 10.0 mg/kg/injection, schedule: Q01DX009 (ip), vehicle: saline 99 % of control and 101 % of control | dose: 20.0 mg/kg/injection, schedule: Q01DX009 (ip), vehicle: saline 104 % of control | dose: 40.0 mg/kg/injection, schedule: Q01DX009 (ip), vehicle: saline 105 % of control and 106 % of control and 109 % of control | dose: 80.0 mg/kg/injection, schedule: Q01DX009 (ip), vehicle: saline 108 % of control and 112 % of control and 118 % of control | dose: 160.0 mg/kg/injection, schedule: Q01DX009 (ip), vehicle: saline 122 % of control | dose: 320.0 mg/kg/injection, schedule: Q01DX009 (ip), vehicle: saline 87 % of control

CSc1ncnc2sc(NN)nc12
inactive: dose: 100.0 mg/kg/injection, schedule: Q01DX001 (ip), vehicle: distilled water + alcohol 94 % of control | dose: 200.0 mg/kg/injection, schedule: Q01DX001 (ip), vehicle: distilled water + alcohol 94 % of control | dose: 400.0 mg/kg/injection, schedule: Q01DX001 (ip), vehicle: distilled water + alcohol 102 % of control

Cc1ccc(S(=O)(=O)CCCCS(=O)(=O)c2ccc(C)cc2)cc1
inactive: [16] 107 % of control | [17] 104 % of control | [18] 97 % of control

C[CH2][Sn]([F])([CH2]C)[CH2]C
inactive: dose: 0.37 mg/kg/injection, schedule: Q01DX009 (ip), vehicle: saline with Tween-80 90 % of control | dose: 0.38 mg/kg/injection, schedule: Q01DX009 (ip), vehicle: Klucel (hydroxypropylcellulose) (HPC) 101 % of control and 96 % of control | dose: 0.75 mg/kg/injection, schedule: Q01DX009 (ip), vehicle: Klucel (hydroxypropylcellulose) (HPC) 104 % of control and 108 % of control and 96 % of control | dose: 0.75 mg/kg/injection, schedule: Q01DX009 (ip), vehicle: saline with Tween-80 105 % of control | dose: 1.5 mg/kg/injection, schedule: Q01DX009 (ip), vehicle: Klucel (hydroxypropylcellulose) (HPC) 102 % of control and 103 % of control and 114 % of control | dose: 1.5 mg/kg/injection, schedule: Q01DX009 (ip), vehicle: saline with Tween-80 100 % of control | dose: 3.0 mg/kg/injection, schedule: Q01DX009 (ip), vehicle: Klucel (hydroxypropylcellulose) (HPC) 109 % of control and 116 % of control

CC1(C)N=C(N)N=C(N)N1c1cccc(CCC(=O)Nc2ccc(S(=O)(=O)F)cc2)c1
inactive: dose: 18.8 mg/kg/injection, schedule: Q01DX009 (ip), vehicle: saline with Tween-80 116 % of control and 118 % of control | dose: 37.5 mg/kg/injection, schedule: Q01DX009 (ip), vehicle: saline with Tween-80 115 % of control and 118 % of control | dose: 150.0 mg/kg/injection, schedule: Q01DX009 (ip), vehicle: saline with Tween-80 107 % of control

N#CC(O)Cc1ccccc1 (centres undefined)
inactive: dose: 2.5 mg/kg/injection, schedule: Q04DX003 (ip), vehicle: other 110 % of control | dose: 5.0 mg/kg/injection, schedule: Q04DX003 (ip), vehicle: other 105 % of control | dose: 10.0 mg/kg/injection, schedule: Q04DX003 (ip), vehicle: other 105 % of control

O=C(NNC(=O)c1ccc(Cl)cc1Cl)c1ccco1
inactive: dose: 12.5 mg/kg/injection, schedule: Q01DX009 (ip), vehicle: saline 100 % of control | [13] 102 % of control and 89 % of control | [5] 100 % of control | [14] 102 % of control and 97 % of control

COC(=O)C1=C(OC)C(C(=O)c2ccccc2)NC1=O (centres undefined)
inactive: [16] 111 % of control | [17] 100 % of control | [18] 99 % of control

COc1ccc(/C=N\N=C(/[O-])c2ccccc2O)cc1.COc1ccc(/C=N\N=C(/[O-])c2ccccc2O)cc1.[Co+2]
inactive: dose: 50.0 mg/kg/injection, schedule: Q04DX002 (ip), vehicle: saline with Tween-80 93 % of control | dose: 100.0 mg/kg/injection, schedule: Q04DX002 (ip), vehicle: saline with Tween-80 98 % of control | dose: 200.0 mg/kg/injection, schedule: Q04DX002 (ip), vehicle: saline with Tween-80 96 % of control

CCOC(=O)C(NC(=O)c1ccccc1)(C(=O)OCC)c1ccccn1
inactive: dose: 60.0 mg/kg/injection, schedule: Q01DX005 (ip), vehicle: saline 99 % of control | dose: 120.0 mg/kg/injection, schedule: Q01DX005 (ip), vehicle: saline 99 % of control | dose: 240.0 mg/kg/injection, schedule: Q01DX005 (ip), vehicle: saline 105 % of control

COc1cc2oc3ccccc3c(=O)c2cc1CSc1ccccc1N
inactive: [11] 89 % of control and 96 % of control | [12] 93 % of control and 98 % of control | [5] 92 % of control and 96 % of control | [6] 87 % of control and 89 % of control

O=C(NC1CCCCC1)N1CCCC1
inactive: [14] 99 % of control | [6] 91 % of control | [15] 95 % of control | [7] 86 % of control | dose: 200.0 mg/kg/injection, schedule: Q01DX009 (ip), vehicle: saline 102 % of control

c1cnc2c(c1)n[n+]1[n-]c3ccccc3n21
inactive: dose: 60.0 mg/kg/injection, schedule: Q01DX005 (ip), vehicle: Klucel (hydroxypropylcellulose) (HPC) 96 % of control | dose: 120.0 mg/kg/injection, schedule: Q01DX005 (ip), vehicle: Klucel (hydroxypropylcellulose) (HPC) 91 % of control

CCN(CC)C(=S)S[Se](SC(=S)N(CC)CC)(SC(=S)N(CC)CC)SC(=S)N(CC)CC
inactive: [1] 103 % of control | [2] 100 % of control | [3] 97 % of control | [4] 104 % of control
